{"source": "patent US20120028917A1", "about": "“Use Of N-(4-((3-(2-Amino-4-Pyrimidinyl)-2-Pyridinyl)Oxy)Phenyl)-4-(4-Methyl-2-Thienyl)-1-Phthalazinamine In The Treatment Of Antimitotic Agent Resistant Cancer” (Amgen Inc., priority 2009, published 2012)", "key": {"[1]": {"tested_on": "NCI-H460", "experiment": "Cell cycle DNA content assay (flow cytometry)", "type": "cell-based", "details": "Homo sapiens, 24 h; NCI-H460, Lung, Parent line; read-out: EC50 @ 24 hours, ≧4N DNA content", "procedure": "NCI-H460 parental and NCI-H460 taxol-resistant cells were seeded at a density of 500,000 cells/well in a 6-well plate in 2 mL of appropriate complete media. The next day cells were treated with AMG 900 or taxol over a 6-point concentration range with a final DMSO concentration of 0.05% in media. After 24 hours, cells were pulsed with BrdU (1:100 dilution) and harvested. Cells were centrifuged at 1600 rpm for 4 minutes and the supernatant was aspirated. Cells were washed in 1× PBS and fixed in 900 μL of ice cold 90% methanol and stored at −20° C. Fixed cells were centrifuged at 2000 rpm for 4 minutes to remove 90% methanol. Cells were washed with 200 μL of wash buffer and stained with 200 μL of propidium iodide (PI) overnight at 4° C. in the dark. Data was acquired and analyzed by flow cytomety (LSRII). A threshold gate was applied according to +4N (same as ≧4N) DNA content and SubG1 positive populations based on DMSO-treated control and low/high drug-treated groups. The data was represented as a percentage of +4N DNA and SubG1 positive subpopulations. The +4N (same as ≧4N) DNA content or SubG1 cellular EC50 values were calculated using a 4-parameter equation. Lung tumor cell lines were treated with control (DMSO), AMG 900 or taxol over a 6-point dose range for 24 hours. Flow cytometric-based cell cycle analysis was performed to measure the percentage of ≧4N DNA content or SubG1 DNA content positive cells. The dose-response curves for AMG 900 represent the drug concentration plotted against the percentage of ≧4N DNA content positive cells. The dose-response curves for taxol represent the drug concentration plotted against the percentage of SubG1 DNA content positive cells. The EC50 values were calculated by 4-parameter fit model."}, "[2]": {"tested_on": "HCT116 parental", "experiment": "≧4N DNA content assay (FIG. 6-A)", "type": "cell-based", "details": "Homo sapiens, HCT-116, 24 hours, read-out: cellular ≧4N DNA content EC50", "procedure": "(§1) Tumor cells were treated with AMG 900, AZD1152, MK-0457, or PHA-739358 (range concentration varied based on potency) for 24 hours and processed for cell-cycle analysis (DNA staining only) as previously described (1). Cells were analyzed on a LSRII flow cytometer using BD FACS Diva software. The concentration-response curves and corresponding EC50 values were calculated using the percentage of cells with ≧4N DNA content versus the DMSO control.\nHCT116 cell lines were treated with increasing concentrations of AMG 900 or AZD1152 for 24 hours. Flow cytometry was used to assess the accumulation of cells with ≧4N DNA content expressed as a percentage of the DMSO-treated control (POC). The concentration-response curves and calculated EC50 values were determined from two independent experiments (bars, ±SD)."}, "[3]": {"tested_on": "RPMI8226", "experiment": "≧4N DNA content assay (flow cytometry)", "type": "cell-based, human", "details": "Homo sapiens", "procedure": "as §1"}, "[4]": {"tested_on": "U226-B1", "experiment": "≧4N DNA content assay (flow cytometry)", "type": "cell-based, human", "details": "Homo sapiens; U226-B1, BCRP −; 24 hours", "procedure": "as §1"}, "[5]": {"tested_on": "three matched taxol-resistant and -sensitive tumor cell lines", "experiment": "Matched taxol-resistant and -sensitive tumor cell lines (summary)", "type": "cell-based", "details": "Homo sapiens; all three matched taxol-resistant and -sensitive tumor cell lines", "procedure": "MES-SA Dx5 and MES-SA cells were plated at a density of 10,000 cells/well onto 96-well plate in complete media and cultured for 24 hours. […] Cells were washed and fixed by adding 100 μL of 2× formaldehyde fixation buffer for 10 minutes and room temperature. […] Cells were immunostained with p-histone H3 antibody (5 μg/mL) and incubated at room temperature for 2 hours. Cells were washed in 100 μL of wash buffer. Next, cells were incubated with a goat anti-rabbit alexa-488 conjugated antibody (1.5 μg/mL) in wash buffer supplemented with Hoechest DNA dye (1 μg/mL) and incubated at room temperature in the dark for 30 minutes. Cells were washed twice with 100 μL of wash buffer. The 96-well plates were analyzed on an ArrayScan VTi (Cellomics) using a bioapplication algorithm (TargetActivation.V2). […] NCI-H460 parental and NCI-H460 taxol-resistant cells were seeded at a density of 500,000 cells/well in a 6-well plate in 2 mL of appropriate complete media. The next day cells were treated with AMG 900 or taxol over a 6-point concentration range with a final DMSO concentration of 0.05% in media. After 24 hours, cells were pulsed with BrdU (1:100 dilution) and harvested. […] Data was acquired and analyzed by flow cytomety (LSRII). […] The +4N (same as ≧4N) DNA content or SubG1 cellular EC50 values were calculated using a 4-parameter equation. […] Data was acquired and analyzed by flow cytometry (LSRII). […]"}}, "note": "Where two headings read alike, the source gives them in different places.", "data": [{"smiles": "Cc1csc(-c2nnc(Nc3ccc(Oc4ncccc4-c4ccnc(N)n4)cc3)c3ccccc23)c1", "note": "[AMG 900, N-(4-((3-(2-amino-4-pyrimidinyl)-2-pyridinyl)oxy)phenyl)-4-(4-methyl-2-thienyl)-1-phthalazinamine]", "values": [{"measurement": "EC50", "setting": "[1]", "value": 1, "unit": "nM"}, {"measurement": "EC50", "setting": "[2]", "value": 2, "unit": "nM"}, {"measurement": "EC50", "setting": "[3]; RPMI-8226, RPMI8226, BCRP +, 24 hours, read-out: ≧4N DNA Content assay, EC50 value", "value": 3, "unit": "nM"}, {"measurement": "EC50", "setting": "[3]; RPMI-8226**, Multiple Myeloma, P-gp− and/or BCRP+, read-out: Cellular EC50", "value": 3, "unit": "nM"}, {"measurement": "EC50", "setting": "[4]", "value": 2, "unit": "nM"}, {"measurement": "EC50", "setting": "[5]", "value": "< 2", "unit": "nM"}]}]}
